Legend:
rat formalin (1%) model = test: rat formalin (1%) test; type: in vivo; conditions: 300 mg/kg, oral, 1 hr pretreatment; 1% formalin intraplantar; FIG. 1
Procedure: 5-Methyl-1H-pyrazole-3-carboxylic acid (4-hydroxy-phenyl)-amide (Compound 1) was tested in the rat formalin (1%) model. The rat formalin test is a preclinical model of human painful conditions.
The formalin test in rat (or mice) is a valid and reliable model of nociception (sensation of pain) and is sensitive for various classes of analgesic drugs. Formalin is a solution of formaldehyde in water. The subcutaneous injection of dilute formalin induces pain in humans and nociceptive (presumptive of pain) behaviors in animals. Since it is painful when it is injected in humans, it is used as an animal model that is considered translational to human pain. […]
In the formalin model, pain response scoring is determined by recording the pain-like behaviors per unit of time including licking, flinching, or raising or shaking of the injected paw. […]
For all Groups, animals were acclimated to the observation chamber for about 15 minutes immediately prior to formalin injection. All animals received an intraplantar subcutaneous injection of 50 μL of 1% formalin into the left hind paw and were then be placed in the observation chamber immediately and formalin-evoked spontaneous nociceptive behaviors in the rats was continuously recorded for 0-60 min using a commercial camcorder. […]

[1] = test system: carrageenan-induced paw-edema; test: rat carrageenan-induced paw-edema model; type: in vivo
Procedure: 5-Methyl-1H-pyrazole-3-carboxylic acid (4-hydroxy-phenyl)-amide (Compound 1) was tested in the rat carrageenan paw-edema model. The rat carrageenan model is a preclinical model of inflammation and anti-inflammatory efficacy. Generally, animals are injected with carrageenan in one hind footpad, usually, half an hour or an hour after they are treated with the test compound while the other footpad is injected with saline as a control. The measurement of paw volume/thickness is then performed at specified time points. The objective of this study was to evaluate the effect of 5-Methyl-1H-pyrazole-3-carboxylic acid (4-hydroxy-phenyl)-amide (Compound 1) on paw edema in rat induced by intra-plantar injection of i-Carrageenan into the left hind paw. [table] On Day 1, carrageenan (1%; 100 uL) was injected subcutaneously into the plantar aspect of the left hindpaw of rats from all groups. Carrageenan injection was performed in conscious rats by restraining with hand and injection was done in the middle of the plantar surface area. The carrageenan solution was vortexed/stirred before each injection. • Route of Administration Oral gavage (PO) • Dosing Regimen: Single dose on Day 1, 1 h before Carrageenan injection. • Method: The day of dosing was designated as Day 1. The animals were not sedated. The volume for each dose was administered over one injection based on the body weight. Paw volume (left hind paw) was measured before carrageenan injection (baseline) and then at 1, 3, 6 and 8 hours (+/−2 minutes) after carrageenan injection (on Day 1). Measurements will be done using a digital plethysmometer as below: In brief, the Plethysmometer is a volume meter, designed for accurate measurements of inflammation-induced swelling. It consists of a water filled cell into which the paw along with the ankle joint is dipped. A transducer records the differences in water level caused by volume displacement and provides LCD readout of the exact volume gain due to swelling. Limb volumes were recorded onto a data sheet as they were measured. One trial per animal were recorded for each time point. […]

[2] = test system: moderate to severe pain after third molar extractions; test: single-dose clinical study, pain after third molar extractions (pain intensity difference); type: in vivo, human; conditions: 1000 mg single dose, up to 24 hours post-dose; FIG. 3
Procedure: A single-center, randomized, double-blind, placebo- and active-controlled, parallel group study was performed to evaluate the efficacy, safety and pharmacokinetic profile of a single dose of 5-Methyl-1H-pyrazole-3-carboxylic acid (4-hydroxy-phenyl)-amide (Compound 1), over a 24-hour on-site period in moderate to severe pain after third molar extractions in up to 280 male subjects was performed. Healthy male subjects, ages 18 to 45 years, were screened by medical history, vital signs, electrocardiogram (ECG), and clinical laboratory tests. Eligible subjects returned to the clinic on the day of surgery and completed baseline vital signs and clinical laboratory tests. The subjects were randomized such that one group received placebo (Group 1), one group received 1000 mg of Compound 1 (Group 2), and one group received 1000 mg acetaminophen (Group 3). All Groups received the treatment dose within up to 4.5 hours after oral surgery (third molar extraction). Pain intensity/pain relief assessments were collected at 0.25, 0.5, 0.75, 1, 1.5, 2, hourly up to 12, 16, and 24 hours post-dose and at time of first rescue medication (oral ibuprofen). […] This unexpected result makes the compounds of the present invention suitable for chronic pain and/or inflammatory indications as disclosed herein.

[3] = pharmacokinetic profile in third molar extraction study; type: in vivo; conditions: human; plasma, 1000 mg single dose, male subjects
Procedure: A single-center, randomized, double-blind, placebo- and active-controlled, parallel group study was performed to evaluate the efficacy, safety and pharmacokinetic profile of a single dose of 5-Methyl-1H-pyrazole-3-carboxylic acid (4-hydroxy-phenyl)-amide (Compound 1), over a 24-hour on-site period in moderate to severe pain after third molar extractions in up to 280 male subjects was performed.
The subjects were randomized such that one group received placebo (Group 1), one group received 1000 mg of Compound 1 (Group 2), and one group received 1000 mg acetaminophen (Group 3). All Groups received the treatment dose within up to 4.5 hours after oral surgery (third molar extraction).
Pain intensity/pain relief assessments were collected at 0.25, 0.5, 0.75, 1, 1.5, 2, hourly up to 12, 16, and 24 hours post-dose and at time of first rescue medication (oral ibuprofen). […] This unexpected result makes the compounds of the present invention suitable for chronic pain and/or inflammatory indications as disclosed herein.

[4] = test system: mechanical allodynia after severe spinal cord contusion injury; test: mechanical allodynia after severe spinal cord contusion injury (von Frey, Up-Down); type: in vivo, rat; conditions: 10 mg/kg/day by gavage for 7 days; day 28 post surgery
Procedure: 5-Methyl-1H-pyrazole-3-carboxylic acid (4-hydroxy-phenyl)-amide (Compound 1) treatment is tested in the suppression of the development of mechanical allodynia after severe spinal cord contusion injury in the rat. Thirteen week-old female Lewis rats (Charles River, Sulzfeld Germany) are housed under a 12:12 h dark/light regime and allowed free access to water and food. After one week of habituation the animals undergo general anesthesia with a mixture of isoflurane and air (induction: 5% isoflurane, maintenance: 2.2% isofluorane). […] The following groups were used: • Group I: SCI model+vehicle (1.5% Carboxymethylcellulose (CMC) in sterile water) by gavage for seven days • Group 2: SCI model+Compound 1 (10 mg/kg/day) in vehicle by gavage for 7 days The mechanical sensitivity response is measured as the direct pressure stimulus required for eliciting foot withdrawal in nonrestrained conditions. […] The 50% threshold force needed for paw withdrawal is calculated for both hind paws of each rat and the mean value of both hind paws is used to represent the mechanical sensitivity of this animal. The mechanical sensitivity (indicated by the 50% threshold force for paw withdrawals) is determined by the Up-Down method using von Frey filaments. […]

neuropathic pain = test: 12 week study in subjects with neuropathic pain; type: in vivo, human; conditions: arms including 1000 and 2000 mg/day
Description: Subjects are diagnosed with neuropathic pain (chronic and ongoing for more than 3 months in contrast to an acute injury of nerve or nervous system).
In case of low back pain (mixed pain) a possible, probable or definite neuropathic pain component can be diagnosed via screening tools at screening/baseline visits, e.g. PAIN DETECT, LANSS, DN-4).
A 12 week study is designed to compare 5-Methyl-1H-pyrazole-3-carboxylic acid (4-hydroxy-phenyl)-amide (Compound 1) to placebo and to a standard (pregabalin).
There are 2-3 dosing arms for Compound 1 (including 1000 and 2000 mg/day).

For Cc1cc(C(=O)Nc2ccc(O)cc2)n[nH]1 [Compound 1, 5-Methyl-1H-pyrazole-3-carboxylic acid (4-hydroxy-phenyl)-amide], the “nociceptive behaviors in Phase II of the rat formalin test” value (rat formalin (1%) model) was “inhibited nociceptive behaviors”, the “carrageenan-induced paw-edema (paw volume)” value ([1]; 300 mg/kg and 600 mg/kg, orally, single dose 1 h before carrageenan, FIG. 2A) was “dose-relatedly inhibited carrageenan-induced paw-edema” and the “AUC of paw volume data, 300 mg/kg dose compared to 600 mg/kg dose” value ([1]; FIG. 2B) was “statistically significant difference”. The “duration of the effect of a single oral dose” value ([1]; single oral dose, paw-edema inhibition) was > 8 h, the “Pain intensity difference from baseline (PID) score compared with 1000 mg acetaminophen” value [2] was “significantly greater and longer lasting PID score” and the half-life [3] was ~10 h. The “mechanical hypersensitivity (50% threshold force for paw withdrawal)” value [4] was “mechanical hypersensitivity is reduced” and the “pain intensity and signs and symptoms of neuropathy/hyperexcitability vs. placebo and standard (pregabalin)” value (neuropathic pain) was “shows improvement vs. placebo and improvement or comparable effects vs. standard”.
